In patent publication US12528777B2, “Quinazolinones derivatives for treatment of non-alcoholic fatty liver disease, preparation and use thereof” (Council of Scientific and Industrial Research, priority 2020, dated 2026):
“Also recorded” adds a separate entry of the source.

What was measured:
[1] = Plasma stability assay; assay type: in vitro ADME, human; settings: for Mean % remaining at 2 hrs in human Plasma: 1 μM, 37° C., 120 min, LC-MS/MS; for Plasma stability: human plasma, after 2 hours, with respect to Propantheline
Experimental: 1 mM Stock of test compound was prepared from 10 mM initial stock solution of compounds by diluting 10 μL of 10 mM stock with 90 μL of DMSO. Then 10 μL of 1 mM stock was diluted with 90 µL of DMSO to give 100 μM concentration. The frozen plasma was thawed at room temperature and centrifuged at 1400 rpm at 4° C., for 15 minutes. Approximately […] of the clear supernatant fraction was transferred to a separate tube and was used for the assay. Final working stock of 1 μM was prepared by diluting 3 μL of 100 μM with 297 μL of plasma. Plasma containing the test compound was incubated for 120 min at 37° C. in shaker with 500 rpm. 50 μL of aliquot of sample at 0, 15, 30, 60 and 120 minutes were precipitated with 150 μL of acetonitrile containing internal standard and centrifuged at 4000 rpm at 4° C. for 20 minutes. 120 μL of supernatant was diluted with 120 μL of water and analyzed by LC-MS/MS.

[2] = Lipophilicity assay (octanol/buffer); assay type: physicochemical; settings: for LogD @ pH 7.4 / logD: n-octanol / 10 mM sodium phosphate buffer pH 7.4, LC-UV; for Lipophilicity class from Log D: pH 7.4
Experimental: 1.56 g NaH2PO4·2H2O was dissolved in 0.5 L water in a 1 L beaker. After adjusting pH to 7.4 using NaOH solution, the volume was made up to 1 L. Equal volumes of sodium phosphate buffer (10 mM, pH 7.4) and n-octanol were added to a separation funnel and mixed thoroughly by shaking and inverting the funnel several times. The two layers were allowed to separate for overnight and then dispensed in two separate glass bottles. 10 mM stock solution was prepared in 100% DMSO and stored at 4° C. 495 μL of organic phase (1-octanol) was added to each well of a 2 mL deep well plate, followed by 495 μL of buffer and 10 μL of test compound was added. The plate was incubated for 3 hr at room temperature on a plate shaker at 500 rpm. After incubation, the samples were allowed to equilibrate for 20 min and then centrifuged at 4000 rpm for 30 min for complete phase separation and analysed by LC-UV.
Log D=Log (area of octanol/area of buffer)

[3] = system: HepG2 cells; test: Confocal microscopy: lipid droplets in oleate induced HepG2 cells; assay type: cell-based; design: key to Reduction in Lipid Droplets: + = slight or in insignificant; ++ = Moderate; +++ and ++++ = active; +++ and ++++ = active; +++++ = very active; settings: for Reduction in Lipid Droplets: oleate induced HepG2 cells, score; for Number of lipid droplets: HepG2 cells, 250 μM oleate induction
Experimental: To select the compounds capable of inhibiting the ubiquitination of ATGL by COP1 by targeting the VP motif, confocal microscopy was performed with the provided molecules. If the compound was effective in inhibiting the interaction, there would be a reduction in the number of fat droplets in the cells after treatment. […] With this rationale in mind, HepG2 cells were induced to accumulate lipid droplets after treatment with 250 µM of oleate and 10 μM of the specific compounds were added. The potential of the compounds to bring about a reduction in the number of fat droplets was then checked by comparison with oleate induced cells by counting number of droplets of approximately 20 cells from each treatment and calculating the average number of lipid droplets of each cell. The selected compounds were then subjected to dose dependent treatments and the ones which could maintain its potency to reduce fat droplets at lower doses were then selected for western blot analysis. The compound which could reduce the number of fat droplets in the cells are expected to raise the levels of ATGL since they are likely to deter COP1 from ubiquitinating ATGL. This increase will be visible only in the protein level and gene expression is likely to remain unchanged since ubiquitination is a […] modification. Thus, western blot was performed to check ATGL levels in the cells with the selected molecules.
HepG2 cells were plated in confocal dishes (SPL, Genetix Biotech Asia Pvt. Ltd.). The cells were allowed to adhere and divide for 16 hours. 10 μM for initial screening and 10 nM, 20 nM, 50 nM, 100 nM, 200 nM, 500 nM, 1 μM and 5 μM for dose dependent assays of the compounds 9 and 107 were dissolved in DMSO and added to the cells. 250 μM of oleate was used for induction. BSA (Sigma Aldrich) was used as a negative control. Post 24 hours of treatment, media was decanted from the cells and washed with 1×PBS solution to remove any remnant. 200 μl of staining solution containing 200 ng/ml BODIPY (Invitrogen) and 25 µg/ml HOECKST342 (Invitrogen) were added to the cells and incubated at 37° C. for 30 minutes under dark conditions. Cells were washed 3 times with 1×PBS to remove excess stain. FLUOVIEW FV10i (Olympus) was used to visualise the cells.

[4] = system: ATGL; test: Western blot of ATGL level in HepG2 cells; assay type: cell-based; design: key to Increase in ATGL level: + = slight or in insignificant; ++ = Moderate; +++ and ++++ = active; +++ and ++++ = active; +++++ = very active; settings: western blot; for Increase in ATGL level: HepG2 cells, score; for ATGL level in HepG2 cells: 24 hours, 10 μM screening or 50 nM-5 μM dose dependent
In short: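 HepG2 cells were treated with compound 24 h (10 μM screen; 50 nM–5 μM dose series) and lysed. 30 μg protein was western blotted for ATGL, with actin as loading reference. ATGL increase was expressed as percent of the 1.6-fold siCOP1 maximum and plotted against log concentration for EC50.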

[5] = Metabolic stability using Human Liver Microsomes; assay type: in vitro ADME
Experimental: 1 mM stock solution of test compound was prepared in DMSO and diluted with Acetonitrile:Water (1:1) to get a 100 μM working concentration. 100 mL of Milli Q water was added to K2HPO4 (1.398 g) and KH2PO4 (0.27 g) to get final pH 7.4 solution of potassium phosphate buffer. […] The above mixture was pre incubated for 15 minutes at 37° C. After pre incubation, 32.5 μL of the mixture was added to 17.5 μL of buffer, this was incubated for 60 minutes at 37° C. [60 min Without Cofactor (NADPH)]. 16.25 μL of the pre incubated mixture and 8.75 μL of cofactor was added to 150 μL of acetonitrile containing internal standard [0 min Sample]. 62 μL of cofactor was added to remaining pre incubation mixture [Incubation mixture]. 25 μL of incubation mixture at 0, 5, 15, 30, 60 min and 60 min without cofactor were precipitated with 150 μL of acetonitrile containing internal standard, vortexed and centrifuged at 4000 rpm at 4° C. for 20 minutes. 120 μL of supernatant was diluted with 120 μL of water and analyzed by LC-MS/MS [sample preparation].

| SMILES | Reduction in Lipid Droplets [3] | Increase in ATGL level [4] | ATGL level in HepG2 cells [4] | also measured |
| --- | --- | --- | --- | --- |
| CC(C)[N+](C)(CCOC(=O)C1c2ccccc2Oc2ccccc21)C(C)C [Propantheline, reference compound] |  |  |  | Mean % remaining at 2 hrs in human Plasma [1]: 1.7% |
| COCCc1ccc(OCC(O)CNC(C)C)cc1 (centres unmarked) [Metroprolol, reference compound] |  |  |  | LogD @ pH 7.4 [2]: −0.09 |
| COCCn1c(C2CCCCC2)nc2ccc(NC(=O)Nc3cccc(C(C)=O)c3)cc2c1=O [Compound 123, 1-(3-acetylphenyl)-3-(2-cyclohexyl-3-(2-methoxyethyl)-4-oxo-3,4-dihydroquinazolin-6-yl)urea] | +++ | ++++ | increased ATGL level | logD [2]: 0.84; Lipophilicity class from Log D [2]: hydrophilic; Mean % remaining at 2 hrs in human Plasma [1]: 48.5%; Plasma stability [1]: good plasma stability |
| O=c1c(O)c(-c2ccc(O)c(O)c2)oc2cc(O)cc(O)c12 [Quercetin, reference compound] |  |  |  | LogD @ pH 7.4 [2]: 2.81 |
| COCCn1cnc2ccc(NC(=O)Nc3cccc(C(=O)N4CCCC4)c3)cc2c1=O [Compound 18, 1-(3-(2-methoxyethyl)-4-oxo-3,4-dihydroquinazolin-6-yl)-3-(3-(pyrrolidine-1-carbonyl)phenyl)urea] | + | ++++ | increased ATGL level; also recorded: ability to increase ATGL level |  |
| COCCn1cnc2ccc(NC(=O)Nc3ccc(OC)cc3)cc2c1=O [Compound 40, 1-(3-(2-methoxyethyl)-4-oxo-3,4-dihydroquinazolin-6-yl)-3-(4-methoxyphenyl)urea] | ++ | ++++ |  |  |
| CC(=O)c1cccc(NC(=O)Nc2ccc3ncn(CCN(C)C)c(=O)c3c2)c1 [Compound 143, 1-(3-acetylphenyl)-3-(3-(2-(dimethylamino)ethyl)-4-oxo-3,4-dihydroquinazolin-6-yl)urea] | +++ | ++++ | some sort of increase in ATGL level | Number of lipid droplets [3]: reduction in lipid droplets |
| COCCn1cnc2ccc(NC(=O)Nc3cccc(N(Cc4ccccc4)C(C)=O)c3)cc2c1=O [Compound 24, N-benzyl-N-(3-(3-(3-(2-methoxyethyl)-4-oxo-3,4-dihydroquinazolin-6-yl)ureido)phenyl)acetamide] | + | ++++ | increased ATGL level |  |
| CCCCn1cnc2ccc(NC(=O)Nc3cccc(C(C)=O)c3)cc2c1=O [Compound 175, 1-(3-acetylphenyl)-3-(3-butyl-4-oxo-3,4-dihydroquinazolin-6-yl)urea] | + | + | did not increase ATGL level | Number of lipid droplets [3]: reduced lipid droplets |
| COCCn1cnc2ccc(NC(=O)Nc3ccccc3)cc2c1=O [Compound 5, 1-(3-(2-methoxyethyl)-4-oxo-3,4-dihydroquinazolin-6-yl)-3-phenylurea] | ++ | ++ |  |  |
| COCCCn1cnc2ccc(NC(=O)Nc3cccc(C(C)=O)c3)cc2c1=O [Compound 89, 1-(3-acetylphenyl)-3-(3-(3-methoxypropyl)-4-oxo-3,4-dihydroquinazolin-6-yl)urea] | +++ | + | some sort of increase in ATGL level | Number of lipid droplets [3]: reduction in lipid droplets |
| COCCn1c(-c2ccc(OC)cc2)nc2ccc(NC(=O)Nc3cccc(C(C)=O)c3)cc2c1=O [Compound 119, 1-(3-acetylphenyl)-3-(3-(2-methoxyethyl)-2-(4-methoxyphenyl)-4-oxo-3,4-dihydroquinazolin-6-yl)urea] | + | + |  |  |
| COCCn1c(C(C)C)nc2ccc(NC(=O)Nc3cccc(C(C)=O)c3)cc2c1=O [Compound 111, 1-(3-acetylphenyl)-3-(2-isopropyl-3-(2-methoxyethyl)-4-oxo-3,4-dihydroquinazolin-6-yl)urea] | ++ | +++ |  |  |
| COCCn1c(C(=O)N2CCCCC2)nc2ccc(NC(=O)Nc3cccc(C(C)=O)c3)cc2c1=O [Compound 330a, 1-(3-acetylphenyl)-3-(3-(2-methoxyethyl)-4-oxo-2-(piperidine-1-carbonyl)-3,4-dihydroquinazolin-6-yl)urea] |  |  |  | Clearance class from % QH [5]: lower clearance; % QH (Well stirred model) ([5]; NADPH, 0-60 min): 26.0%; logD [2]: 1.79; Lipophilicity class from Log D [2]: ideal lipophilicity; Mean % remaining at 2 hrs in human Plasma [1]: 45.8%; Plasma stability [1]: good plasma stability |
| COCCn1cnc2ccc(NC(=O)Nc3cccc(OC)c3)cc2c1=O [Compound 6, 1-(3-(2-methoxyethyl)-4-oxo-3,4-dihydroquinazolin-6-yl)-3-(3-methoxyphenyl)urea] | ++++ | ++++ | increase in ATGL level | Number of lipid droplets [3]: reduction of lipid droplet |
| COCCn1cnc2cc(NC(=O)Nc3cccc(C(C)=O)c3)ccc2c1=O [Compound 192, 1-(3-acetylphenyl)-3-(3-(2-methoxyethyl)-4-oxo-3,4-dihydroquinazolin-7-yl)urea] | ++ | +++ |  |  |
| COCCn1cnc2ccc(NC(=O)Nc3cccc(C(C)O)c3)cc2c1=O (centres unmarked) [Compound 11, 1-(3-(1-hydroxyethyl)phenyl)-3-(3-(2-methoxyethyl)-4-oxo-3,4-dihydroquinazolin-6-yl)urea] | + | + | increased ATGL level |  |
| CCOC(=O)Cn1cnc2ccc(NC(=O)Nc3ccc(F)c(Cl)c3)cc2c1=O [Compound 83, ethyl 2-(6-(3-(3-chloro-4-fluorophenyl)ureido)-4-oxoquinazolin-3 (4H)-yl)acetate] | + | + |  |  |
